Data taken from paper PMC11478322, “1,2,4-Oxadiazole Derivatives: Physicochemical Properties, Antileishmanial Potential, Docking and Molecular Dynamic Simulations of Leishmania infantum Target Proteins” (Molecules, 2024).
Where two headings read alike, the source gives them in different places.

Experiments:
[1] = test system: peritoneal macrophages from BALB/c mice (PeM); assay: Cytotoxicity assay (MTT) in peritoneal macrophages; assay type: cell-based
Procedure: (§1) The cytotoxic potential of Ox1–Ox7 was first evaluated in fibroblasts (L929) and macrophages (J774.G8). For this, 5 × 10^5 cells/mL were seeded in 96-well microplates containing 100 μL of DMEM or RPMI-1640 medium supplemented with 10% fetal bovine serum (FBS) and cultivated for 24 h at 37 °C, under 5% CO2 atmosphere. […] Untreated cells were considered as negative control. The cell viability was measured by spectrometry after 48 h of cultivation using MTT (Sigma-Aldrich, St. Louis, MO, USA) methodology described by Mosmann. The optical densities (OD) of the samples were read in a Glomax Multiplate reader (Promega, Madison, WI, USA) at 540 nm. Each assay was performed in triplicate in three independent experiments. […] The selectivity index (SI) for each compound was calculated as the ratio between the CC50 values obtained for J774.G8 macrophages and fibroblast and the IC50 values for promastigotes. The compound with a higher value of SI was selected for cytotoxicity evaluation in macrophages obtained from BALB/c mice peritoneal exudate (PeM), following the methodology described above.

[2] = Cytotoxicity assay (MTT) in peritoneal macrophages; assay type: cell-based, BALB/c mice; details: BALB/c, mouse, peritoneal macrophages (PeM); peritoneal macrophages, estimated; read-out: CC50 for PeMs
Procedure: as §1

fibroblasts (L929) = assay: Cytotoxicity assay (MTT) in fibroblasts; assay type: cell-based; details: 200 µM, 48 h
Procedure: as §1

[3] = Cytotoxicity assay (MTT) in fibroblasts; assay type: cell-based; details: mouse, 48 h of treatment, MTT, tested 6.25–200 µM
Procedure: as §1

[4] = test system: L. infantum amastigotes in PeMs; assay: microbe, parasite or virus in culture; details: for number of intracellular amastigotes / parasites in infected PeMs: glucantime 346.19 µM, Amphotericin B 10.55 µM
Procedure: After initial cultivation, non-adherent cells were removed by washing with fresh RPMI medium. Subsequently, PeMs were infected with stationary promastigote forms of L. infantum at 1:20 PeM/promastigotes ratio. […] After incubation time, the samples were washed in PBS, fixed with methanol, and stained with Giemsa. The percentage of infected macrophages was determined by counting 150 randomly chosen cells in duplicate, and the survival index (SuI) was calculated by multiplying the percentage of infected cells by the mean of amastigotes in infected cells. […] The tests were carried out in duplicate in three independent experiments.

macrophages (J774.G8) = assay: Cytotoxicity assay (MTT) in macrophages; assay type: cell-based; details: 200 µM, 48 h
Procedure: as §1

[5] = Cytotoxicity assay (MTT) in macrophages; assay type: cell-based; details: mouse, 48 h of treatment, MTT, tested 6.25–200 µM
Procedure: as §1

[6] = test system: L. infantum promastigotes; assay: Mitochondrial membrane potential, Rhodamine 123 flow cytometry; assay type: cell-based
Procedure: Afterward, the cells were centrifuged and stained with Rhodamine 123 (10 µg/mL, molecular probes, Invitrogen™, Waltham, MA, USA) in PBS for 15 min at 27 °C, in the dark. […] The changes in the fluorescence intensity for fluorochrome were determined by the variation index calculated as follows: (MT − MC)/MC where MT is the mean fluorescence intensity of treated cells and MC is the mean of fluorescence of control cells without treatment. A total of 20,000 events were acquired, and the data were analyzed with FLOWJO software version 10.2.

[7] = test system: L. infantum promastigotes; assay: Promastigote viability (CellTiter-Glo ATP); assay type: cell-based, L. infantum (BH46 strain); details: for IC50: Leishmania infantum, read-out: IC50 Pro; for SI Pro/J774.G8: ratio CC50 (J774.G8)/IC50 (promastigotes); for SI Pro/L929: ratio CC50 (L929)/IC50 (promastigotes); for SI (promastigotes vs fibroblasts and J774.G8 macrophages): stated as bound
Procedure: Promastigote forms of L. infantum (BH46 strain) were cultivated at 27 °C in Schneider’s medium, supplemented with 10% (v/v) heat-inactivated fetal bovine serum (FBS, Gibco, Waltham, MA, USA), 100 U/mL penicillin, and 0.01 mg/mL streptomycin. Parasites in the log phase were used in the test of drugs against promastigotes, whereas those obtained in the stationary phase were used to infect peritoneal macrophages. […] The viability of promastigotes was assessed through ATP production using the CellTiter-Glo® Luminescent Cell Viability assay (Promega, Madison, WI, USA), in accordance with the manufacturer’s instructions.

[8] = test system: L. infantum promastigotes; assay: Scanning electron microscopy of promastigotes (rounded cells count); assay type: cell-based; details: 48 h, control 5%
Procedure: To identify alterations in the morphology of promastigotes and amastigotes, scanning (SEM) and transmission (TEM) electron microscopy assays were performed. For SEM, L. infantum promastigotes were treated with once or twice the IC50 concentration of Ox1 for 48 h. Subsequently, the parasites were harvested by centrifugation, washed with 100 mM PBS, pH 7.2, fixed at room temperature, for 1 h in 2.5% glutaraldehyde solution diluted in 0.1 M cacodylate buffer, pH 7.2. Cells were adhered to coverslips pre-coated with poly-L-lysine, post-fixed for 1 h with a solution containing 1% osmium tetroxide, 0.8% potassium ferricyanide, and 5 mM calcium chloride diluted in 0.1 M cacodylate buffer, pH 7.2, in light-protected environment. Then, the cells were dehydrated in graded ethanol series (15–100%) for 10 min at room temperature. Samples were critical-point dried in a LEICA EM CPD300 apparatus (Leica Microsystems, Wetzlar, Hessen, DE, Germany) and then coated with 20 nm gold and observed in a JEOL T-200 scanning electron microscope (JEOL Ltd., Tokyo, Japan). For MET, promastigotes and infected PeMs were treated or not with once or twice IC50 concentration of Ox1, fixed and post-fixed, as described above. For infected–adhered peritoneal macrophages, after the post-fixation, the cells were scraped off the culture dishes with a rubber policeman. […]

[9] = test system: L. infantum amastigotes in PeMs; design: method as in PMID 18660990, PMID 23070424; details: concentration used as positive control; read-out: IC50 of reference drugs; cited from earlier work
[10] = 24 h, Ox1 8.24, 16.49, 32.98 µM
[11] = promastigotes, 48 h of treatment

Molecule	melting point [°C]	CC50 at 48 h ([3]; L929 fibroblasts) [µM]	number of intracellular amastigotes / parasites in infected PeMs [4, 10]	CC50 at 48 h ([5]; J774.G8 macrophages) [µM]	IC50 [7, 11] [µM]	SI Pro/J774.G8 [7]	SI Pro/L929 [7]	SI (promastigotes vs fibroblasts and J774.G8 macrophages) [7]	further results
COc1ccc(-c2noc(NC3CCCCC3)n2)cc1 [Ox1, N-Cyclohexyl-3-(4-methoxyphenyl)-1,2,4-oxadiazol-5-amine]	109 to 110	> 200	significantly decreased	> 200	32.9 ± 2.2	8.9	9.7	–	reduction of viability of PeMs ([1]; 400 µM, compared to control cells): 13%; viability of macrophages (PeM) ([1]; 6.25 to 200 µM): significantly increased; CC50 at 48 h [2]: 617 µM; reduction of cell viability, fibroblasts (fibroblasts (L929)): 20%; survival index (SuI) of amastigotes inside the macrophages [4, 10]: significantly decreased; SI against amastigotes ([4]; CC50 for PeM/IC50 of amastigote forms): 61.7; IC50 ([4]; Leishmania infantum, Peritoneal macrophage, 24 h, read-out: IC50 for amastigote forms in PeMs): 10 µM; reduction of cell viability, macrophages J774.G8 (macrophages (J774.G8)): 26%; variation index of membrane potential (Rhodamine 123) ([6]; 2× IC50 of Ox1, 48 h): −0.32; variation index of membrane potential (Rhodamine 123) ([6]; IC50 of Ox1, 48 h): +0.28; membrane potential (Rhodamine 123 fluorescence) vs control ([6]; ½ IC50 of Ox1, 48 h): No difference; reduction in promastigote viability ([7]; 25 µM, 48 h): 32%; reduction of growth of parasites ([7]; 50 µM, 24 h): 66%; promastigote viability inhibition ([7]; 200 µM, regardless of the cultivation time (24 and 48 h)): exceeded 90%; SI against promastigotes compared to peritoneal macrophages ([7]; CC50 PeM/IC50 promastigotes): 18.7; increase in activity compared to compound Ox3 ([7]; promastigote IC50 comparison): about 10 times; percentage of rounding cells ([8]; IC50 (32.98 µM)): 7%; percentage of rounding cells ([8]; twice the IC50 (65.96 µM)): 30%
C[C@@H]1[C@H](O)[C@@H](C)/C=C/C=C/C=C/C=C/C=C/C=C/C=C/[C@H](O[C@@H]2O[C@H](C)[C@@H](O)[C@H](N)[C@@H]2O)C[C@@H]2O[C@](O)(C[C@@H](O)C[C@@H](O)[C@H](O)CC[C@@H](O)C[C@@H](O)CC(=O)O[C@H]1C)C[C@H](O)[C@H]2C(=O)O [Amphotericin B, reference compound]	–	–	reduced the number of intracellular amastigotes	–	–	–	–	–	IC50 [9]: 10.6 µM
C#CCN(c1nc(-c2cccc([N+](=O)[O-])c2)no1)C1CCCCC1 [Ox7, N-Cyclohexyl-3-(3-nitrophenyl)-N-(prop-2-yn-1-yl)-1,2,4-oxadiazol-5-amine]	94 to 96	> 200	–	197 ± 6	98.2 ± 1.4	2.0	–	–	–
O=[N+]([O-])c1cccc(-c2noc(NC3CCCCC3)n2)c1 [Ox2, N-Cyclohexyl-3-(3-nitrophenyl)-1,2,4-oxadiazol-5-amine]	131 to 133	> 200	–	> 200	220 ± 3.6	–	1.7	lower than 5.0	–
antimoniate of meglumine [glucantime, reference compound]	–	–	reduced the number of intracellular amastigotes	–	–	–	–	–	IC50 [9]: 346 µM
O=[N+]([O-])c1ccc(-c2noc(NC3CCCCC3)n2)cc1 [Ox3, N-Cyclohexyl-3-(4-nitrophenyl)-1,2,4-oxadiazol-5-amine]	201 to 203	> 200	–	> 200	336 ± 12.1	–	1.1	–	–
C#CCN(c1nc(-c2ccccc2)no1)C1CCCCC1 [Ox5, N-Cyclohexyl-3-phenyl-N-(prop-2-yn-1-yl)-1,2,4-oxadiazol-5-amine]	112 to 114	> 200	–	160 ± 6.5	84.7 ± 3.6	–	4.4	lower than 5.0	–
c1ccc(-c2noc(NC3CCCCC3)n2)cc1 [Ox, N-Cyclohexyl-3-(phenyl)-1,2,4-oxadiazol-5-amine]	125 to 127	–	–	–	–	–	–	–	–
C#CCN(c1nc(-c2ccc([N+](=O)[O-])cc2)no1)C1CCCCC1 [Ox6, N-Cyclohexyl-3-(4-nitrophenyl)-N-(prop-2-yn-1-yl)-1,2,4-oxadiazol-5-amine]	108 to 110	> 200	–	> 200	92.2 ± 1.9	2.5	3.7	lower than 5.0	–
Cc1ccc(-c2noc(NC3CCCCC3)n2)cc1 [Ox4, N-Cyclohexyl-3-(4-methylphenyl)-1,2,4-oxadiazol-5-amine]	–	–	–	–	–	–	1.7	–	CC50 at 48 h ([3]; read-out: CC50 L929): > 200 µM; CC50 at 48 h ([5]; read-out: CC50 J774.G8): > 200 µM; IC50 ([7]; 48 h): 174 ± 12.3 µM
